Experimental data from ChEMBL document CHEMBL3046193, “Promising antitumor effect of alpha-tocopheryl succinate in human colon and liver cancer cells” (Med Chem Res, 2012).
pIC50: −log10 of the molar value. Active and inactive are the calls of the source. No cut-off for these calls is given here.

Legend:
HCT-116 [1] = assay: Induction of apoptosis in Homo sapiens (human) HCT116 cells assessed as caspase9 cleavage at 52.3 uM at 16 hr by Western blot analysis; type: functional, cell-based
HCT-116 [2] = assay: Antiangiogenic activity against Homo sapiens (human) HCT116 cells assessed as reduction in VEGF level at 52.3 uM after 24 hr by ELISA relative to control; type: functional; design: scale not given: the % may be the effect or the level left
MCF7 [3] = assay: Cytotoxicity against Homo sapiens (human) MCF7 cells at 40 uM after 48 hr by SRB assay; type: functional
HeLa [4] = assay: Cytotoxicity against Homo sapiens (human) HeLa cells at 20 to 100 uM by SRB assay; type: functional, cell-based; conditions: TDE = time-dependent effect
HCT-116 [5] = assay: Cytotoxicity against Homo sapiens (human) HCT116 cells assessed as DNA fragmentation at […] after 48 hr by agarose gel electrophoresis; type: functional, cell-based
HCT-116 [6] = assay: Antiangiogenic activity against Homo sapiens (human) HCT116 cells assessed as reduction in VEGF level at 52.3 uM after 48 hr by ELISA relative to control; type: functional; design: scale not given: the % may be the effect or the level left
HCT-116 [7] = assay: Cytotoxicity against Homo sapiens (human) HCT116 cells at 100 uM after 24 hr by SRB assay; type: functional
HCT-116 [8] = assay: Cytotoxicity against Homo sapiens (human) HCT116 cells after 48 hr by SRB assay; type: functional, cell-based; conditions: HCT-116, 48 h
HepG2 [9] = assay: Induction of cell cycle arrest in Homo sapiens (human) HepG2 cells assessed as G2/M phase cells at 55 uM at 16 hr by flow cytometric analysis (reference value: 4 +/- 0.9 cells); type: functional
HeLa [10] = assay: Cytotoxicity against Homo sapiens (human) HeLa cells after 24 to 72 hr by SRB assay; type: functional, cell-based
MCF7 [11] = assay: Cytotoxicity against Homo sapiens (human) MCF7 cells at 100 uM after 24 hr by SRB assay; type: functional
HeLa [12] = assay: Cytotoxicity against Homo sapiens (human) HeLa cells at 20 uM after 72 hr by SRB assay; type: functional, cell-based
HCT-116 [13] = assay: Cytotoxicity against Homo sapiens (human) HCT116 cells after 24 to 72 hr by SRB assay; type: functional, cell-based
HepG2 [14] = assay: Cytotoxicity against Homo sapiens (human) HepG2 cells assessed as DNA fragmentation at 55 uM from 24 to 48 hr by agarose gel electrophoresis; type: functional, cell-based
HepG2 [15] = assay: Cytotoxicity against Homo sapiens (human) HepG2 cells after 24 to 72 hr by SRB assay; type: functional, cell-based
HepG2 [16] = assay: Cytotoxicity against Homo sapiens (human) HepG2 cells at 40 uM after 72 hr by SRB assay; type: functional
HepG2 [17] = assay: Induction of apoptosis in Homo sapiens (human) HepG2 cells assessed as effect on Bcl2 level at 55 uM from 3 to 24 hr by Western blot analysis; type: functional, cell-based
HeLa [18] = assay: Cytotoxicity against Homo sapiens (human) HeLa cells at 40 uM after 72 hr by SRB assay; type: functional
HCT-116 [19] = assay: Cytotoxicity against Homo sapiens (human) HCT116 cells at 20 uM after 72 hr by SRB assay; type: functional, cell-based
HCT-116 [20] = assay: Induction of cell cycle arrest in Homo sapiens (human) HCT116 cells assessed as S phase cells at 52.3 uM at 16 hr by flow cytometric analysis (reference value: 33.6 +/- 0.6 cells); type: functional
HCT-116 [21] = assay: Induction of cell cycle arrest in Homo sapiens (human) HCT116 cells assessed as increase in G0/G1 phase cells at 52.3 uM at 24 hr by flow cytometric analysis relative to control; type: functional
HepG2 [22] = assay: Antiangiogenic activity against Homo sapiens (human) HepG2 cells assessed as reduction in VEGF level at 55 uM from 24 to 48 hr by ELISA relative to control; type: functional, cell-based
HCT-116 [23] = assay: Cytotoxicity against Homo sapiens (human) HCT116 cells at 40 uM after 72 hr by SRB assay; type: functional
HCT-116 [24] = assay: Induction of cell cycle arrest in Homo sapiens (human) HCT116 cells assessed as G2/M phase cells at 52.3 uM at 48 hr by flow cytometric analysis (reference value: 9.7 +/- 0.8 cells); type: functional
HepG2 [25] = assay: Cytotoxicity against Homo sapiens (human) HepG2 cells at 20 to 100 uM by SRB assay; type: functional, cell-based; conditions: TDE = time-dependent effect
HCT-116 [26] = assay: Induction of cell cycle arrest in Homo sapiens (human) HCT116 cells assessed as G0/G1 phase cells at 52.3 uM at 16 hr by flow cytometric analysis (reference value: 58.2 +/- 3.7 cells); type: functional
HCT-116 [27] = assay: Cytotoxicity against Homo sapiens (human) HCT116 cells at 20 to 100 uM by SRB assay; type: functional, cell-based; conditions: TDE = time-dependent effect
HCT-116 [28] = assay: Induction of cell cycle arrest in Homo sapiens (human) HCT116 cells assessed as S phase cells at 52.3 uM at 48 hr by flow cytometric analysis (reference value: 33.6 +/- 0.6 cells); type: functional
HepG2 [29] = assay: Cytotoxicity against Homo sapiens (human) HepG2 cells at 20 uM after 72 hr by SRB assay; type: functional, cell-based
HepG2 [30] = assay: Cytotoxicity against Homo sapiens (human) HepG2 cells after 48 hr by SRB assay; type: functional, cell-based; conditions: HepG2, 48 h
HepG2 [31] = assay: Induction of cell cycle arrest in Homo sapiens (human) HepG2 cells assessed as S phase cells at 55 uM at 16 hr by flow cytometric analysis (reference value: 46.4 +/- 3.6 cells); type: functional
HCT-116 [32] = assay: Induction of cell cycle arrest in Homo sapiens (human) HCT116 cells assessed as G2/M phase cells at 52.3 uM at 16 hr by flow cytometric analysis (reference value: 9.7 +/- 0.8 cells); type: functional
HCT-116 [33] = assay: Induction of cell cycle arrest in Homo sapiens (human) HCT116 cells assessed as S phase cells at 52.3 uM at 24 hr by flow cytometric analysis (reference value: 33.6 +/- 0.6 cells); type: functional
HepG2 [34] = assay: Induction of cell cycle arrest in Homo sapiens (human) HepG2 cells assessed as G2/M phase cells at 55 uM at 24 hr by flow cytometric analysis (reference value: 4 +/- 0.9 cells); type: functional
MCF7 [35] = assay: Cytotoxicity against Homo sapiens (human) MCF7 cells at 20 to 100 uM by SRB assay; type: functional, cell-based; conditions: TDE = time-dependent effect
HepG2 [36] = assay: Cytotoxicity against Homo sapiens (human) HepG2 cells at 100 uM after 24 hr by SRB assay; type: functional
HepG2 [37] = assay: Induction of cell cycle arrest in Homo sapiens (human) HepG2 cells assessed as S phase cells at 55 uM at 24 hr by flow cytometric analysis (reference value: 46.4 +/- 3.6 cells); type: functional
HepG2 [38] = assay: Induction of apoptosis in Homo sapiens (human) HepG2 cells assessed as caspase9 cleavage at 55 uM at 16 hr by Western blot analysis; type: functional, cell-based
MCF7 [39] = assay: Cytotoxicity against Homo sapiens (human) MCF7 cells at 20 uM after 72 hr by SRB assay; type: functional, cell-based
HCT-116 [40] = assay: Induction of cell cycle arrest in Homo sapiens (human) HCT116 cells assessed as G2/M phase cells at 52.3 uM at 24 hr by flow cytometric analysis (reference value: 9.7 +/- 0.8 cells); type: functional
HCT-116 [41] = assay: Induction of cell cycle arrest in Homo sapiens (human) HCT116 cells assessed as increase in G0/G1 phase cells at 52.3 uM at 48 hr by flow cytometric analysis relative to control; type: functional
HeLa [42] = assay: Cytotoxicity against Homo sapiens (human) HeLa cells at 100 uM after 24 hr by SRB assay; type: functional
MCF7 [43] = assay: Cytotoxicity against Homo sapiens (human) MCF7 cells after 24 to 72 hr by SRB assay; type: functional, cell-based
HCT-116 [44] = assay: Induction of apoptosis in Homo sapiens (human) HCT116 cells assessed as effect on Bcl2 level at 52.3 uM from 3 to 24 hr by Western blot analysis; type: functional, cell-based
HepG2 [45] = assay: Induction of cell cycle arrest in Homo sapiens (human) HepG2 cells assessed as increase in G0/G1 phase cells at 55 uM at 48 hr by flow cytometric analysis relative to control; type: functional
HepG2 [46] = assay: Induction of cell cycle arrest in Homo sapiens (human) HepG2 cells assessed as increase in G0/G1 phase cells at 55 uM at 24 hr by flow cytometric analysis relative to control; type: functional
HepG2 [47] = assay: Induction of cell cycle arrest in Homo sapiens (human) HepG2 cells assessed as G0/G1 phase cells at 55 uM at 16 hr by flow cytometric analysis (reference value: 50.4 +/- 1.7 cells); type: functional
HepG2 [48] = assay: Induction of cell cycle arrest in Homo sapiens (human) HepG2 cells assessed as G2/M phase cells at 55 uM at 48 hr by flow cytometric analysis (reference value: 4 +/- 0.9 cells); type: functional
HepG2 [49] = assay: Induction of cell cycle arrest in Homo sapiens (human) HepG2 cells assessed as S phase cells at 55 uM at 48 hr by flow cytometric analysis (reference value: 46.4 +/- 3.6 cells); type: functional

Cc1c(C)c2c(c(C)c1OC(=O)CCC(=O)O)CC[C@@](C)(CCC[C@H](C)CCC[C@H](C)CCCC(C)C)O2 [(+)-ALPHA-TOCOPHERYL SUCCINATE]
Activity (HCT-116 [1]): Active | Activity (HCT-116 [2]): 39% | Activity (MCF7 [3]): 14% | Activity (HeLa [4]): tde | Activity (HCT-116 [5]): Active | Activity (HCT-116 [6]): 54% | Activity (HCT-116 [7]): 47% | pIC50 (HCT-116 [8]): 4.28 | Activity (HepG2 [9]): 2.9% | Activity (HeLa [10]): Dose-dependent effect | Activity (MCF7 [11]): 45% | Activity (HeLa [12]): inactive | Activity (HCT-116 [13]): Dose-dependent effect | Activity (HepG2 [14]): Active | Activity (HepG2 [15]): Dose-dependent effect | Activity (HepG2 [16]): 15% | Activity (HepG2 [17]): inactive | Activity (HeLa [18]): 20% | Activity (HCT-116 [19]): inactive | Activity (HCT-116 [20]): 32.7% | Activity (HCT-116 [21]): 32.3% | Activity (HepG2 [22]): Active | Activity (HCT-116 [23]): 48% | Activity (HCT-116 [24]): 2.7% | Activity (HepG2 [25]): tde | Activity (HCT-116 [26]): 58.7% | Activity (HCT-116 [27]): tde | Activity (HCT-116 [28]): 13.4% | Activity (HepG2 [29]): inactive | pIC50 (HepG2 [30]): 4.26 | Activity (HepG2 [31]): 38.4% | Activity (HCT-116 [32]): 9.5% | Activity (HCT-116 [33]): 19.9% | Activity (HepG2 [34]): 2.1% | Activity (MCF7 [35]): tde | Activity (HepG2 [36]): 55% | Activity (HepG2 [37]): 33.01% | Activity (HepG2 [38]): Active | Activity (MCF7 [39]): inactive | Activity (HCT-116 [40]): 4.4% | Activity (HCT-116 [41]): 47.3% | Activity (HeLa [42]): 65% | Activity (MCF7 [43]): Dose-dependent effect | Activity (HCT-116 [44]): inactive | Activity (HepG2 [45]): 62.1% | Activity (HepG2 [46]): 27.4% | Activity (HepG2 [47]): 60% | Activity (HepG2 [48]): 1.8% | Activity (HepG2 [49]): 15.4%
